We go through 13 molecules from PubChem BioAssay (NCI).

The structures appear in SMILES notation.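 All cell lines were grown in 96-well plates and treated with compound for 48 hours. TGI: concentration producing complete growth inhibition.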 Where only a bound is given, the exact number is not on record here.

Assay in all cases: NCI-60 cell line screen, 48 h
Assay [1] relates to DU-145 prostate.
Assay [2] has as its system EKVX NSCLC.
Assay [3] concerns HT29 colon.
The test system of assay [4] is MALME-3M melanoma.
Assay [5] relates to MCF7 breast.
In assay [6] the test system is NCI-H460 lung.
For assay [7], the system named is PC-3 prostate.
Assay [8] deals with RPMI-8226 leukemia.
In assay [9] the test system is SW-620 colon.
Assay [10] concerns U251 CNS.

With `CC(=O)OCC(=O)O[C@@H]1[C@H]2[C@@H](OC(=O)c3ccccc3)[C@@H](C)C[C@]2(O)[C@H](OC(C)=O)[C@@]2(C)C[C@]1(OC(C)=O)C[C@H]1C(=O)C(C)(C)[C@@H](OC(C)=O)[C@@H]12`, the TGI in assay [1], in assay [2], in assay [3], in [4], in assay [5] and in [6] was over 25 µM throughout. The TGI in [7], in [8], in assay [9] and in [10] was over 25 µM each time.
Turning to `CC1(C)OC[C@@H](C[C@H](O)COCc2ccccc2)O1`, the TGI in assay [1], in assay [2], in assay [3], in assay [4], in assay [5] and in assay [6] was over 100 µM throughout. In addition, the TGI in assay [7], in assay [8], in assay [9] and in assay [10] was over 100 µM throughout.
Regarding `CCCCN1C(=O)CC2[C@@H]3CCc4cc(OC)ccc4C3CC[C@]2(C)C1=O` (stereo not given in full), the TGI in assay [1], in [2], in assay [3], in assay [4], in [5] and in assay [6] was over 10 µM in each case. Further, the TGI in assay [7], in assay [8], in assay [9] and in assay [10] was over 10 µM each time.
Take `O=C1N/N=C\c2ccc(cc2)OCc2cccc(n2)COc2ccc(cc2)/C=N\NC1=O`: the TGI in assay [1], in [2], in assay [3], in assay [4], in assay [5] and in assay [6] was over 25 µM throughout. Also, the TGI in assay [7], in [8], in [9] and in [10] was over 25 µM each time.
On to `Cn1nc2c(c1N)Cc1c(nn(C)c1N)-c1ccccc1-2`, for which the TGI in assay [1], in assay [2], in [3], in assay [4], in assay [5] and in [6] was over 100 µM each time. The TGI in assay [7], in assay [8], in [9] and in [10] was over 100 µM each time.
On to `Cc1cc(S(=O)(=O)Nc2n[nH]c(Nc3ccccc3)n2)c(SCC(=O)O)cc1Cl`, for which the TGI in assay [1], in assay [2], in [3], in [4], in assay [5] and in assay [6] was over 100 µM each time. Moreover, the TGI in assay [7], in assay [8], in [9] and in assay [10] was over 100 µM throughout.
Turning to `O=C(/C=C\Nc1ccccc1O)C(F)(F)F`, the TGI was over 100 µM in [1]; over 100 µM in [2]; over 100 µM in assay [3]; 91.3 µM in assay [4]; over 100 µM in assay [5]; over 100 µM in assay [6]. The TGI in assay [7], in [8], in assay [9] and in assay [10] was over 100 µM each time.
Take `COc1cc2c3c(cc(Cl)nc3c1OC)C(=O)C(=O)N2`: the TGI in [1] is 30.8 µM; in [2], 11.9 µM; in assay [3], 41.4 µM; in assay [4] it was 3.82 µM; in [5] it was 4.58 µM; in assay [6] it was 42.7 µM. The TGI in assay [7] is 27.6 µM; in assay [8] it was over 100 µM; in [9], over 55.5 µM; in assay [10], 30.3 µM.
`O=C1CC(c2ccccc2Cl)C2(C(=O)NC(=O)NC2=O)C(c2ccccc2Cl)C1` (stereo not given): the TGI in assay [1] is over 100 µM; in assay [2], over 100 µM; in assay [3] it was over 100 µM; in [4], 72.4 µM; in [5] it was over 100 µM; in [6], over 100 µM. The TGI in assay [7], in [8], in assay [9] and in [10] was over 100 µM each time.
Regarding `Cc1nnc2n1-c1ccccc1N(Cc1ccccc1)CC2`, the TGI in [1], in assay [2], in assay [3], in assay [4], in [5] and in assay [6] was over 100 µM in each case. Further, the TGI is over 100 µM in [7], 58.3 µM in assay [8], over 100 µM in assay [9] and over 100 µM in assay [10].
For the molecule `CC1CCc2sc3nc4n(c(=O)c3c2C1)CC(C)S4` (stereo not given), the TGI in assay [1] was over 100 µM; in [2] it was 70.4 µM; in assay [3], 33.4 µM; in assay [4], 65.8 µM; in assay [5] it was 52.5 µM; in [6] it was 65.2 µM. In addition, the TGI in assay [7] is 62.9 µM; in assay [8], over 100 µM; in assay [9], over 100 µM; in assay [10], over 100 µM.
With `Clc1cc(C(c2cc(Cl)sc2Cl)c2cc(Cl)sc2Cl)c(Cl)s1`, the TGI in assay [1], in assay [2], in assay [3], in assay [4], in [5] and in [6] was over 100 µM throughout. In addition, the TGI in [7], in [8], in assay [9] and in assay [10] was over 100 µM throughout.
Consider `C[N+]1(CCN=C=NC2CCCCC2)CCOCC1`, for which the TGI in [1], in assay [2], in assay [3], in assay [4], in assay [5] and in assay [6] was over 100 µM each time. The TGI in assay [7], in [8], in assay [9] and in assay [10] was over 100 µM each time.
